Source: ChEMBL document CHEMBL4507281, “Data for DCP probe BI-4394” (2021)

Key:
[1] = target: Serine/threonine-protein kinase D1 (Homo sapiens) (UniProt Q15139); details: Compound concentration 100.0 nM
[2] = target: Serine/threonine-protein kinase mTOR (Homo sapiens) (UniProt P42345); details: Compound concentration 100.0 nM
[3] = target: Ribosomal protein S6 kinase alpha-2 (Homo sapiens) (UniProt Q15349); details: Compound concentration 100.0 nM
[4] = target: Casein kinase I isoform epsilon (Homo sapiens) (UniProt P49674); details: Compound concentration 100.0 nM
[5] = target: Tyrosine-protein kinase FRK (Homo sapiens) (UniProt P42685); details: Compound concentration 100.0 nM
[6] = target: 5-hydroxytryptamine receptor 2A (Homo sapiens) (UniProt P28223); details: Compound concentration 10.0 uM
[7] = system: Proto-oncogene tyrosine-protein kinase receptor Ret (Homo sapiens), P07949 [V804L]; details: Compound concentration 100.0 nM
Sequence of Proto-oncogene tyrosine-protein kinase receptor Ret (Homo sapiens), P07949 [V804L] (P07949 whole entry V804L): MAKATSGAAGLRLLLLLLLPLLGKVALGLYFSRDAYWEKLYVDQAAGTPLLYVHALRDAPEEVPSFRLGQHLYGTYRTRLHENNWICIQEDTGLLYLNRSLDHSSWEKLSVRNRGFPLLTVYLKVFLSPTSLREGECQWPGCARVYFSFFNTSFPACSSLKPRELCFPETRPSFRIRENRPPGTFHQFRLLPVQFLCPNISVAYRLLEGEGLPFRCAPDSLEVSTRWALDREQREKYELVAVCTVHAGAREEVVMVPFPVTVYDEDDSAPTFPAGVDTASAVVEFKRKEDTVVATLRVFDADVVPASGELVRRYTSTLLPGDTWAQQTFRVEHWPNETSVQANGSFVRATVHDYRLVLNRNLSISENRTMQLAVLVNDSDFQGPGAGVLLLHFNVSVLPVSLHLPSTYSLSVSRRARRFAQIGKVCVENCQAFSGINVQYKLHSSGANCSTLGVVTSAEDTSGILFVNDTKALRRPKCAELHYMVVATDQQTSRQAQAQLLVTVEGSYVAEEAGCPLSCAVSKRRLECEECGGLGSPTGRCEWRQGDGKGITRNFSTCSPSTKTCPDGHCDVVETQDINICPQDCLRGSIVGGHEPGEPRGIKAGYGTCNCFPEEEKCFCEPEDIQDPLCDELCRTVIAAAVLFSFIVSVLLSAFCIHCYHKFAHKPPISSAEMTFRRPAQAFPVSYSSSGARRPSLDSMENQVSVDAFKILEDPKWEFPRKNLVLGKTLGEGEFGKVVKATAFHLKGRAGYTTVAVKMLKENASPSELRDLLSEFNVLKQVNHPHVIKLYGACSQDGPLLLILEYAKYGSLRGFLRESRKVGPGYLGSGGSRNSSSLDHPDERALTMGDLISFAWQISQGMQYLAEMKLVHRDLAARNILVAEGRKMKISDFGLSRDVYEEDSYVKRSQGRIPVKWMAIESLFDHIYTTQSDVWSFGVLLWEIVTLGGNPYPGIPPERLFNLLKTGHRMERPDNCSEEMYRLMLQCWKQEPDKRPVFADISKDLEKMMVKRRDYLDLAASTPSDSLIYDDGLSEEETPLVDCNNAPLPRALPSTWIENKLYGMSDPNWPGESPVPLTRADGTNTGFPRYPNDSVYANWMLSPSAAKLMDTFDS

[8] = target: Ephrin type-A receptor 1 (Homo sapiens) (UniProt P21709); details: Compound concentration 100.0 nM
Sequence of Ephrin type-A receptor 1 (Homo sapiens) (P21709 whole entry, canonical isoform): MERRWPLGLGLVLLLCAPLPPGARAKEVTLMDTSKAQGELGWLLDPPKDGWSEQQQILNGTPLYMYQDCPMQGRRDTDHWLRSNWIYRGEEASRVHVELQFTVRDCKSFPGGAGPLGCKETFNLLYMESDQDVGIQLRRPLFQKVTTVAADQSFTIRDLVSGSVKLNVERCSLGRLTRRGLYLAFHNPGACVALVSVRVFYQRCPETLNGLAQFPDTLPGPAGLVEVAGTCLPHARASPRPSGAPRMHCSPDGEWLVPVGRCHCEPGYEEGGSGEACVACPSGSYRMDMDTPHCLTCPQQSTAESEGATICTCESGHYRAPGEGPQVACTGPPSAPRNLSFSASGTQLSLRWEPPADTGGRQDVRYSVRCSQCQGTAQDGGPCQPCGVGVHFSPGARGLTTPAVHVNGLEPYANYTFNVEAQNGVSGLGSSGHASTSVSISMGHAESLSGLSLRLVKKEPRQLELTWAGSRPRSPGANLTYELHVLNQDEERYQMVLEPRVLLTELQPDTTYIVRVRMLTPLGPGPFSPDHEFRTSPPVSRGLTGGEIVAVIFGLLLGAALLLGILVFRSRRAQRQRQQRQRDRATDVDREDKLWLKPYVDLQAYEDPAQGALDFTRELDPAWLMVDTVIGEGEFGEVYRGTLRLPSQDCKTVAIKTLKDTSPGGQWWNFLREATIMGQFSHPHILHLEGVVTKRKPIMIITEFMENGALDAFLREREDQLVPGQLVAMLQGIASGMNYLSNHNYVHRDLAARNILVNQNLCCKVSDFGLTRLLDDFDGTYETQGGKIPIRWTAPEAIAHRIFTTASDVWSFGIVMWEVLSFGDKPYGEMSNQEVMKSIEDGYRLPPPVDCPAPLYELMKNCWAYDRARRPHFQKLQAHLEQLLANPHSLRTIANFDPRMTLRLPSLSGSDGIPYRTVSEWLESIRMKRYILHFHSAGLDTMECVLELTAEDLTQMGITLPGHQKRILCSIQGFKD

[9] = system: Phosphatidylinositol 4,5-bisphosphate 3-kinase catalytic subunit alpha isoform (Homo sapiens), P42336 [C420R]; details: Compound concentration 100.0 nM
[10] = target: Serine/threonine-protein kinase RIO1 (Homo sapiens) (UniProt Q9BRS2); details: Compound concentration 100.0 nM
[11] = system: Phosphatidylinositol 4,5-bisphosphate 3-kinase catalytic subunit alpha isoform (Homo sapiens), P42336 [Q546K]; details: Compound concentration 100.0 nM
[12] = target: Epidermal growth factor receptor (Homo sapiens) (UniProt P00533); details: Compound concentration 100.0 nM
[13] = target: Phosphatidylinositol 4-phosphate 5-kinase type-1 alpha (Homo sapiens) (UniProt Q99755); details: Compound concentration 100.0 nM
[14] = target: Mitogen-activated protein kinase kinase kinase kinase 4 (Homo sapiens) (UniProt O95819); details: Compound concentration 100.0 nM
[15] = target: Rhodopsin kinase GRK7 (Homo sapiens) (UniProt Q8WTQ7); details: Compound concentration 100.0 nM
Sequence of Rhodopsin kinase GRK7 (Homo sapiens) (Q8WTQ7 whole entry): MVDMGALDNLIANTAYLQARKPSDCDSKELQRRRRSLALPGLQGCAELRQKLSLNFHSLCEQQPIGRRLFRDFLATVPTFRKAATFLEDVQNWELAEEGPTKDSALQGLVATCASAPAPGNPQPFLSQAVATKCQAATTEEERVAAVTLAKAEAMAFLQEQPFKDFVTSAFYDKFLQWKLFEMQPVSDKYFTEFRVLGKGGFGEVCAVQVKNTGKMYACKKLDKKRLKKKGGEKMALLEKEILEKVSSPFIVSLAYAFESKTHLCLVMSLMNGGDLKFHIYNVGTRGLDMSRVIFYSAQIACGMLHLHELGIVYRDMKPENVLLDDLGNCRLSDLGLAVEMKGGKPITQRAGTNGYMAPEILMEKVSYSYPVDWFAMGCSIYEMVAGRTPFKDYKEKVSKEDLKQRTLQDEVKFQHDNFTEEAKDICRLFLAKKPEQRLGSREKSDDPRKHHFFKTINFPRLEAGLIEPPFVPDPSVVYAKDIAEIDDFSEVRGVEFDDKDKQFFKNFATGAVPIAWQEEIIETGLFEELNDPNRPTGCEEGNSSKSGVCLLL

[16] = target: Megakaryocyte-associated tyrosine-protein kinase (Homo sapiens) (UniProt P42679); details: Compound concentration 100.0 nM
[17] = target: Muscarinic acetylcholine receptor M4 (Homo sapiens) (UniProt P08173); details: Compound concentration 10.0 uM
[18] = target: TGF-beta receptor type-1 (Homo sapiens) (UniProt P36897); details: Compound concentration 100.0 nM
[19] = target: Dual specificity mitogen-activated protein kinase kinase 2 (Homo sapiens) (UniProt P36507); details: Compound concentration 100.0 nM
[20] = target: Serine/threonine-protein kinase MARK1 (Homo sapiens) (UniProt Q9P0L2); details: Compound concentration 100.0 nM
[21] = target: Dual specificity mitogen-activated protein kinase kinase 6 (Homo sapiens) (UniProt P52564); details: Compound concentration 100.0 nM
[22] = system: Epidermal growth factor receptor (Homo sapiens), P00533 [UNDEFINED MUTATION]; details: Compound concentration 100.0 nM
[23] = target: Tyrosine-protein kinase receptor TYRO3 (Homo sapiens) (UniProt Q06418); details: Compound concentration 100.0 nM
[24] = target: Angiopoietin-1 receptor (Homo sapiens) (UniProt Q02763); details: Compound concentration 100.0 nM
[25] = target: Serine/threonine-protein kinase PknB (Mycobacterium tuberculosis) (UniProt P9WI81); details: Compound concentration 100.0 nM
[26] = target: STE20/SPS1-related proline-alanine-rich protein kinase (Homo sapiens) (UniProt Q9UEW8); details: Compound concentration 100.0 nM
[27] = target: Receptor-interacting serine/threonine-protein kinase 1 (Homo sapiens) (UniProt Q13546); details: Compound concentration 100.0 nM
[28] = target: Leukocyte tyrosine kinase receptor (Homo sapiens) (UniProt P29376); details: Compound concentration 100.0 nM
Sequence of Leukocyte tyrosine kinase receptor (Homo sapiens) (P29376 whole entry): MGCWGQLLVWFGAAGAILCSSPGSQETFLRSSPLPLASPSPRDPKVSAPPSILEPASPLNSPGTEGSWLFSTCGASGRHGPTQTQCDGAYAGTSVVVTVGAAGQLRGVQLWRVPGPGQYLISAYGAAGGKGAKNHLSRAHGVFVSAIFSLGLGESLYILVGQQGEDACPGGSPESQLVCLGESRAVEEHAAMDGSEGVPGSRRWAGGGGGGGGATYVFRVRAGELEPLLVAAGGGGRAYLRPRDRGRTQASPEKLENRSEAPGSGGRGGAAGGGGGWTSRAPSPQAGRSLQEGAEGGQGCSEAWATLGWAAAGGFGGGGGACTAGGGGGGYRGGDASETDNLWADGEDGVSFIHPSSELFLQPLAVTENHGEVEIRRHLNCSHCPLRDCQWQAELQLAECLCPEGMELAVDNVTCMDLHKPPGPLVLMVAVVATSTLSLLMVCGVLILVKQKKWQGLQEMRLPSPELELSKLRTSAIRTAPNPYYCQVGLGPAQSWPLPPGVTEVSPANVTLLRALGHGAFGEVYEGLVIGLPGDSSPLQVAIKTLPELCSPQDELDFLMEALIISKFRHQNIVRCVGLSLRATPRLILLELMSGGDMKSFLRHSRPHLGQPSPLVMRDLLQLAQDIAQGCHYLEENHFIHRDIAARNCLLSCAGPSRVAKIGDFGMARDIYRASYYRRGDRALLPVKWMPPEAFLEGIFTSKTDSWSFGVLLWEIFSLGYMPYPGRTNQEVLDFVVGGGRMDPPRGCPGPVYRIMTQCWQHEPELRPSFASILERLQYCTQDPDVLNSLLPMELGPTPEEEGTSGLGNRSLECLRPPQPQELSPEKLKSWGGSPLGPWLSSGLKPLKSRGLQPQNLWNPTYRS

[29] = target: Inhibitor of nuclear factor kappa-B kinase subunit alpha (Homo sapiens) (UniProt O15111); details: Compound concentration 100.0 nM
[30] = target: Phosphatidylinositol 4,5-bisphosphate 3-kinase catalytic subunit alpha isoform (Homo sapiens) (UniProt P42336); details: Compound concentration 100.0 nM
[31] = target: Mitogen-activated protein kinase kinase kinase 9 (Homo sapiens) (UniProt P80192); details: Compound concentration 100.0 nM
[32] = target: Mast/stem cell growth factor receptor Kit (Homo sapiens) (UniProt P10721); details: Compound concentration 100.0 nM
[33] = system: Receptor-type tyrosine-protein kinase FLT3 (Homo sapiens), P36888 [UNDEFINED MUTATION]; details: Compound concentration 100.0 nM
[34] = target: Mitogen-activated protein kinase kinase kinase 12 (Homo sapiens) (UniProt Q12852); details: Compound concentration 100.0 nM
[35] = target: Macrophage colony-stimulating factor 1 receptor (Homo sapiens) (UniProt P07333); details: Compound concentration 100.0 nM
[36] = target: BMP-2-inducible protein kinase (Homo sapiens) (UniProt Q9NSY1); details: Compound concentration 100.0 nM
Sequence of BMP-2-inducible protein kinase (Homo sapiens) (Q9NSY1 whole entry, looked up): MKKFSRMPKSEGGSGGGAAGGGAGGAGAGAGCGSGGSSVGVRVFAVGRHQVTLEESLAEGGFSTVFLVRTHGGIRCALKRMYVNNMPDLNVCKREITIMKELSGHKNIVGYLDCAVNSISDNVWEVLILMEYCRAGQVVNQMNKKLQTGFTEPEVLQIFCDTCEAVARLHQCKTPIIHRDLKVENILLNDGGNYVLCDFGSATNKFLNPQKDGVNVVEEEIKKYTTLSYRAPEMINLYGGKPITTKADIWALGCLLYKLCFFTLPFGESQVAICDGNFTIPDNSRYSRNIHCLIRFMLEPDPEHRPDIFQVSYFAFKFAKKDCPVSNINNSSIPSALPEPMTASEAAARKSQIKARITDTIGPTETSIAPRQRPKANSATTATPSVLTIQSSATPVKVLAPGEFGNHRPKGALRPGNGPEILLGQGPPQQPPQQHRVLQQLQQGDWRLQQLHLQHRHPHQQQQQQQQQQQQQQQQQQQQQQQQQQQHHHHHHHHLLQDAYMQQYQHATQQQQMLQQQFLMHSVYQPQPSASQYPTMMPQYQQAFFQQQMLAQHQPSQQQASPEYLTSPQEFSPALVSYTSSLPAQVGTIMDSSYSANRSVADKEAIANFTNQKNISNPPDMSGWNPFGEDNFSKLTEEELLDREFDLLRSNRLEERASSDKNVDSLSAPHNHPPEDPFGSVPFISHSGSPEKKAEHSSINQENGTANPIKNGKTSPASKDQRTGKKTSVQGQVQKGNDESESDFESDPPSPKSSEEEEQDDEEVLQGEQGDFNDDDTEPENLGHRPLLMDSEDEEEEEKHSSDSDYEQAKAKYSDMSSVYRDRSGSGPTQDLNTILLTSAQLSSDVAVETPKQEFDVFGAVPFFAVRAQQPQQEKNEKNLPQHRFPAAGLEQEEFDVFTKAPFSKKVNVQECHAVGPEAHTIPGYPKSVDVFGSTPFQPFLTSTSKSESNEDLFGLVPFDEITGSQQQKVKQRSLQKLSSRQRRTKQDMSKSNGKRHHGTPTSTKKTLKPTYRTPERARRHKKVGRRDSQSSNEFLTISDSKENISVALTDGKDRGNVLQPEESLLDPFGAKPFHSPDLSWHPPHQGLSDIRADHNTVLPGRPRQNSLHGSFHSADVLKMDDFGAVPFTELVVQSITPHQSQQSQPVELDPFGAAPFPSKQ

[37] = target: Cyclin-G-associated kinase (Homo sapiens) (UniProt O14976); details: Compound concentration 100.0 nM
[38] = system: Tyrosine-protein kinase ABL1 (Homo sapiens), P00519 [Y253F]; details: Compound concentration 100.0 nM
[39] = target: Serine/threonine-protein kinase NIM1 (Homo sapiens) (UniProt Q8IY84); details: Compound concentration 100.0 nM
[40] = target: Mitogen-activated protein kinase 15 (Homo sapiens) (UniProt Q8TD08); details: Compound concentration 100.0 nM
[41] = target: Myosin light chain kinase family member 4 (Homo sapiens) (UniProt Q86YV6); details: Compound concentration 100.0 nM
[42] = target: Tyrosine-protein kinase CSK (Homo sapiens) (UniProt P41240); details: Compound concentration 100.0 nM
[43] = target: D(3) dopamine receptor (Homo sapiens) (UniProt P35462); details: Compound concentration 10.0 uM
Sequence of D(3) dopamine receptor (Homo sapiens) (P35462 whole entry): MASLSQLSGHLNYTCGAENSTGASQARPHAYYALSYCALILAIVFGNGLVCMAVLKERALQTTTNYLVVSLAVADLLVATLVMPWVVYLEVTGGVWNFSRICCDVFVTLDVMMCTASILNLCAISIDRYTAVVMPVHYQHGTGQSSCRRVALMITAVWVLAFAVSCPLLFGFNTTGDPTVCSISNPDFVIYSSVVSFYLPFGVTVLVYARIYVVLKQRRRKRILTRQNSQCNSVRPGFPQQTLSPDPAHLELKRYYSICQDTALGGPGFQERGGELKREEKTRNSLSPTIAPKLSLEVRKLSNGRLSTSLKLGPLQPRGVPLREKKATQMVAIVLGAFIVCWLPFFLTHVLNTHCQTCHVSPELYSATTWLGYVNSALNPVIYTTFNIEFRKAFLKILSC

[44] = target: Interleukin-1 receptor-associated kinase 3 (Homo sapiens) (UniProt Q9Y616); details: Compound concentration 100.0 nM

Compound: CCOC(=O)c1cc2cc(-c3cc(C(=O)NCc4ccc(C(=O)O)cc4)nn3C)ccc2[nH]1 [BI 4394]
- residual activity [1]: 75%
- residual activity [2]: 100%
- residual activity [3]: 100%
- residual activity [4]: 100%
- residual activity [5]: 100%
- inhibition [6]: 19.1%
- residual activity [7]: 99%
- residual activity [8]: 100%
- residual activity [9]: 83%
- residual activity [10]: 96%
- residual activity [11]: 95%
- residual activity [12]: 92%
- residual activity [13]: 100%
- residual activity [14]: 95%
- residual activity [15]: 86%
- residual activity [16]: 96%
- inhibition [17]: -6.49%
- residual activity [18]: 100%
- residual activity [19]: 83%
- residual activity [20]: 76%
- residual activity [21]: 100%
- residual activity [22]: 94%
- residual activity [23]: 100%
- residual activity [24]: 83%
- residual activity [25]: 100%
- residual activity [26]: 85%
- residual activity [27]: 100%
- residual activity [28]: 100%
- residual activity [29]: 100%
- residual activity [30]: 92%
- residual activity [31]: 100%
- residual activity [32]: 83%
- residual activity [33]: 72%
- residual activity [34]: 79%
- residual activity [35]: 100%
- residual activity [36]: 100%
- residual activity [37]: 85%
- residual activity [38]: 93%
- residual activity [39]: 79%
- residual activity [40]: 100%
- residual activity [41]: 100%
- residual activity [42]: 74%
- inhibition [43]: 2.74%
- residual activity [44]: 100%

Compound: Cn1nc(C(=O)NCc2ccc(C(=O)O)cc2)cc1-c1ccc2[nH]ccc2c1 [BI 4395]
- residual activity [1]: 95%
- residual activity [2]: 31%
- residual activity [3]: 100%
- residual activity [4]: 80%
- residual activity [5]: 100%
- inhibition [6]: 23.6%
- residual activity [7]: 45%
- residual activity [8]: 95%
- residual activity [9]: 84%
- residual activity [10]: 76%
- residual activity [11]: 76%
- residual activity [12]: 100%
- residual activity [13]: 63%
- residual activity [14]: 92%
- residual activity [15]: 100%
- residual activity [16]: 86%
- inhibition [17]: 0.05%
- residual activity [18]: 97%
- residual activity [19]: 85%
- residual activity [20]: 100%
- residual activity [21]: 100%
- residual activity [22]: 92%
- residual activity [23]: 100%
- residual activity [24]: 82%
- residual activity [25]: 76%
- residual activity [26]: 90%
- residual activity [27]: 100%
- residual activity [28]: 81%
- residual activity [29]: 90%
- residual activity [30]: 41%
- residual activity [31]: 100%
- residual activity [32]: 90%
- residual activity [33]: 66%
- residual activity [34]: 100%
- residual activity [35]: 100%
- residual activity [36]: 82%
- residual activity [37]: 90%
- residual activity [38]: 100%
- residual activity [39]: 78%
- residual activity [40]: 98%
- residual activity [41]: 76%
- residual activity [42]: 94%
- inhibition [43]: 1.67%
- residual activity [44]: 83%
